Data as given in patent US9156783B2, “Compounds for treating proliferative disorders” (Synta Pharmaceuticals Corp., priority 2006, dated 2015).

Tested on: inducible human Hsp70
Assay: Hsp70 RNA induction by quantitative PCR analysis in Ramos B cells
Type: cell-based
Settings: 500 nM compound, 6 hours; for % induction relative to Compound B: Compound B induction set to 100%; for fold induction at 0.5 µM: Homo sapiens, read-out: fold induction over DMSO
Description: The ability of the compounds of the invention to induce Hsp70 RNA induction by quantitative PCR analysis was examined. Ramos B cells were treated with 500 nM each compound for 6 hours and the RNA was isolated from the cells. Quantitative PCR was performed as described below:
Details for Quantitative PCR are as follows:
500 ng of RNA from each sample was used for cDNA synthesis using iScript cDNA Synthesis Kit (Biorad, Cat #170-8891). 1 ul of cDNA mixture was used with the iQ SYBR Green Supermix (Biorad, Cat#170-8882) to perform quantitative PCR in an iCycler machine (Biorad) using standard protocols. QPCR for each sample/time point was performed in duplicate. The following primers for inducible human Hsp70 and gapdh were used: […]
Ct values were obtained from the iCycler program and used in an equation (2^−ΔΔCT) for determining the amount of target relative to gapdh expression. This compares the relative expression of Hsp70 to the corresponding levels of gapdh in each sample. Duplicate wells were averaged. The amount of N-Malonyl-bis(N′-methyl-N′thiobenzoylhydrazide) (Compound B) induction of Hsp70 was set to 100% and the percent of induction of Hsp70 by the compounds of the invention was determined relative to 100%.

COP(=O)(CP(=O)(NN(C)C(=S)c1ccccc1)OC)NN(C)C(=S)c1ccccc1 (stereo not shown) [Compound 30, Dimethyl N,N′-methylenebis(N′-methyl-N′(phenylcarbonothioyl)-phosphonohydrazidate)]
% induction relative to Compound B: 0.34%
fold induction at 0.5 µM: 0.85

COP(=O)(CP(=O)(NN(C)C(=O)c1ccccc1)OC)NN(C)C(=O)c1ccccc1 (stereo not shown) [Compound 33]
% induction relative to Compound B: 0.14%
fold induction at 0.5 µM: 0.35

CN(NC(=O)CC(=O)NN(C)/C(=N/S(C)(=O)=O)c1ccccc1)/C(=N/S(C)(=O)=O)c1ccccc1 [Compound 67, N′1,N′3-bis(methanesulfonimino(phenyl)methyl)-N′1,N′3-dimethylmalonohydrazide]
% induction relative to Compound B: 0.75%
fold induction at 0.5 µM: 1.87

CN(NC(=O)CS(=O)(=O)NN(C)C(=S)c1ccccc1)C(=S)c1ccccc1 [Compound 68, N′-Methyl-2-(2-methyl-2-(phenylcarbonothioyl)hydrazinyl)-2-oxo-N′-(phenylcarbonothioyl)ethanesulfonohydrazide]
% induction relative to Compound B: 11.78%
fold induction at 0.5 µM: 29.3

CNN=C(C(=O)NN(C)C(=S)c1ccccc1)C(=O)NN(C)C(=S)c1ccccc1 [Compound 71, N′1,N′3-dimethyl-2-(2-methylhydrazono)-N′1,N′3-di(phenylcarbonothioyl)-malonohydrazide]
% induction relative to Compound B: 17.59%
fold induction at 0.5 µM: 46.9
